Legend:
Type in all cases: biochemical
[1] = biological target: T1, purified human topoisomerase II alpha (Homo sapiens, UniProt P11388); test: DNA decatenation assay with purified enzyme (kDNA); conditions: catenated kDNA, read-out: mean IC50, inhibition of DNA decatenation
T1 construct: screened in an ATPase assay using purified full length tagged human topoisomerase II alpha; made in house; host or cells: Sf21 insect cells, baculovirus (pFastBac1)
Protocol: Reagents for the assay were purchased from TopoGEN (catalog number 1001–1, TopoGEN, Inc., Port Orange, FL). Topoisomerase II was extracted according to the manufacturer's instructions from nuclei of HL-60 cells (ATCC; American Type Culture Collection, Manassas, Virginia, USA) and contained both isoforms as assessed by Western blotting. Calculation of specific topoisomerase II decatenation activity was based on complete decatenation of a given amount of catenated input DNA (100 ng kDNA) by a defined amount of nuclear extract containing the alpha and beta isoforms or of a defined amount of purified enzyme in a particular amount of time. The topoisomerase II activity from nuclei decatenated 0.07 ng catenated kDNA · min^-1 · ng^-1 extract. Purified topoisomerase II alpha (see above) decatenated 0.13 ng catenated kDNA · min^-1 · ng^-1. Vehicle (DMSO) or drug substance at concentrations to yield the desired end concentrations were added and samples were preincubated for 5 minutes at 37°C and 400 rpm in an Eppendorf thermomixer. Reactions were started by adding ATP (to 450 μM final concentration) to each sample and incubation was continued for 20 minutes. […] Gels were analyzed under a UV transilluminator and decatenated kDNA products were quantified using AlphaEaseFC (FluorChem 8900) image analysis software version 3.2.3 (Alpha Innotech, San Leandro, CA).

Axl = Axl (Homo sapiens, UniProt P30530); test: Radiometric filter binding kinase assay
Axl, sequence (P30530 26-894, species assumed): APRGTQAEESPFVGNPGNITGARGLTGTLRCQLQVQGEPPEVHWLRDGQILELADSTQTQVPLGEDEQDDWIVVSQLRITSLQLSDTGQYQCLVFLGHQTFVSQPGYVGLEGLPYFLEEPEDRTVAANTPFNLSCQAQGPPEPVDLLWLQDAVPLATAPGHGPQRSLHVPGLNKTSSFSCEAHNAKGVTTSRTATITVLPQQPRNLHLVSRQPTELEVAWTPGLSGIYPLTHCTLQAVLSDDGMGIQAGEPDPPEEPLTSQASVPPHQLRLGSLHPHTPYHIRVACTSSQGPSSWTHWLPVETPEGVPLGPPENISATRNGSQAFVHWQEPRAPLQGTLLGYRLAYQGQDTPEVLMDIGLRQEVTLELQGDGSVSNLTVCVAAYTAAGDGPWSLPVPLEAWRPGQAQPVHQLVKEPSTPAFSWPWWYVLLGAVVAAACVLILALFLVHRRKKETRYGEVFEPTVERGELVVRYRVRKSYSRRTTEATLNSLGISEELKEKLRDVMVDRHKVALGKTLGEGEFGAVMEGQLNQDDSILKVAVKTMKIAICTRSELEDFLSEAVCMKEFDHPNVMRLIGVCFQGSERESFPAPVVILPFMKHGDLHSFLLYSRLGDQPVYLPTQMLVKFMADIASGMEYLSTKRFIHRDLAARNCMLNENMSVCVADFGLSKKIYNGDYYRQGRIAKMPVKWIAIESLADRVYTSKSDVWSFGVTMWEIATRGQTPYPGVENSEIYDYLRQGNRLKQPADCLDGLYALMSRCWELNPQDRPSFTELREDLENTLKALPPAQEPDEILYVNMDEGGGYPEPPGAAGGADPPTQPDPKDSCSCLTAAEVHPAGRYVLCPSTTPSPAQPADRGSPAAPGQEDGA
Description: (§1) Based on homology structural models of the target, a purine scaffold was designed interactively using the Macromodel modeling software. The designed purine scaffold was subsequently used as a substructure query to search the Novartis compound collection. Around 50 molecules were retrieved in this manner and screened in an ATPase assay using purified full length tagged human topoisomerase II alpha. […] Subsequently, we carried out kinetic analysis with QAP 1 in order to corroborate the mode of action. […] The data were analyzed by non-linear regression analysis using the equations corresponding to competitive, uncompetitive, and mixed inhibition (see Methods) and a statistical analysis (F-test; p ≤ 0.05) was carried out to identify the best model. […] A linearized representation (Eady-Hofstee) of one of these experiments is depicted in Figure 1D. To confirm the mode of action of QAP 1, inhibition studies were also carried out in the presence of different concentration of the inhibitor at different ATP concentrations and the IC50 values were determined. […] Next, QAP 1 was tested against a panel of kinases in a radiometric assay. With the exception of subtle inhibition of the Ret and c-Src tyrosine kinases no effect of the compound was observed on other kinases in the panel, even at the highest concentration tested (Table 1). Thus, QAP 1 is a relatively potent inhibitor of topoisomerase II ATPase function with fairly good selectivity over various serine/threonine/tyrosine protein kinases. To test if QAP 1 inhibited topoisomerase II DNA strand passage activity, nuclear extracts of HL-60 leukemic cells were incubated with catenated kDNA in the presence of increasing concentrations of QAP 1.

CDK1/CycB = CDK1/CycB (Homo sapiens, UniProt P06493); test: Radiometric filter binding kinase assay
Description: as §1

EphB4 = EphB4 (Homo sapiens, UniProt P54760); test: Radiometric filter binding kinase assay
EphB4, sequence (P54760 16-987, species assumed): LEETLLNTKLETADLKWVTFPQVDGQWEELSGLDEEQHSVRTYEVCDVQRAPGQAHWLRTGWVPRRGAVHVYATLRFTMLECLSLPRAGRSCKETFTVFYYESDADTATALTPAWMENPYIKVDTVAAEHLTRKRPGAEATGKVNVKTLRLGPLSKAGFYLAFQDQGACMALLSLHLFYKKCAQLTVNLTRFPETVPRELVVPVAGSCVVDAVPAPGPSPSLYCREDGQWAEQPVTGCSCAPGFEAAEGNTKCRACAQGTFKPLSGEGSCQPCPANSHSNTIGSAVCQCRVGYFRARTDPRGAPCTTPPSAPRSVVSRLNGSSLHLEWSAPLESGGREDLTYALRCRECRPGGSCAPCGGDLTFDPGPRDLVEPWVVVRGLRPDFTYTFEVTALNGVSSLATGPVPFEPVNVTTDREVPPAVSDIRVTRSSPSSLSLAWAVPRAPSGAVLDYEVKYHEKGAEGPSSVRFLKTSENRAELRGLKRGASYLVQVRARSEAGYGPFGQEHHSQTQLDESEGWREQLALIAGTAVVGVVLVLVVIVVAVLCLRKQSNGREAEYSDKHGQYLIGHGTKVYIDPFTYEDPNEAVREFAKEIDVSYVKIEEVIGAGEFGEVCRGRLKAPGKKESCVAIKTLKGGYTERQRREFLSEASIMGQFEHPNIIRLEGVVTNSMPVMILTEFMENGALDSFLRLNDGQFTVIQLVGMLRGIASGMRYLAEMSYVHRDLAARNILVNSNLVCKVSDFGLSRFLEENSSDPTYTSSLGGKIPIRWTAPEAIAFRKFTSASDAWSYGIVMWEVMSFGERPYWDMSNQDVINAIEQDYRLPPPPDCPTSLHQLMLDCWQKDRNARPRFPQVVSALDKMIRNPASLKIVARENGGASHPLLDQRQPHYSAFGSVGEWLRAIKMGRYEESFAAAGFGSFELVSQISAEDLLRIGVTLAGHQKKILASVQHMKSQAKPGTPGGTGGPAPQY
Description: as §1

IGF-1R = IGF-1R (Homo sapiens, UniProt P08069); test: Radiometric filter binding kinase assay
Description: as §1

Jak2 = Jak2 (Homo sapiens, UniProt O60674); test: Radiometric filter binding kinase assay
Description: as §1

KDR = KDR (Homo sapiens, UniProt P35968); test: Radiometric filter binding kinase assay
KDR, sequence (P35968 20-1356, species assumed): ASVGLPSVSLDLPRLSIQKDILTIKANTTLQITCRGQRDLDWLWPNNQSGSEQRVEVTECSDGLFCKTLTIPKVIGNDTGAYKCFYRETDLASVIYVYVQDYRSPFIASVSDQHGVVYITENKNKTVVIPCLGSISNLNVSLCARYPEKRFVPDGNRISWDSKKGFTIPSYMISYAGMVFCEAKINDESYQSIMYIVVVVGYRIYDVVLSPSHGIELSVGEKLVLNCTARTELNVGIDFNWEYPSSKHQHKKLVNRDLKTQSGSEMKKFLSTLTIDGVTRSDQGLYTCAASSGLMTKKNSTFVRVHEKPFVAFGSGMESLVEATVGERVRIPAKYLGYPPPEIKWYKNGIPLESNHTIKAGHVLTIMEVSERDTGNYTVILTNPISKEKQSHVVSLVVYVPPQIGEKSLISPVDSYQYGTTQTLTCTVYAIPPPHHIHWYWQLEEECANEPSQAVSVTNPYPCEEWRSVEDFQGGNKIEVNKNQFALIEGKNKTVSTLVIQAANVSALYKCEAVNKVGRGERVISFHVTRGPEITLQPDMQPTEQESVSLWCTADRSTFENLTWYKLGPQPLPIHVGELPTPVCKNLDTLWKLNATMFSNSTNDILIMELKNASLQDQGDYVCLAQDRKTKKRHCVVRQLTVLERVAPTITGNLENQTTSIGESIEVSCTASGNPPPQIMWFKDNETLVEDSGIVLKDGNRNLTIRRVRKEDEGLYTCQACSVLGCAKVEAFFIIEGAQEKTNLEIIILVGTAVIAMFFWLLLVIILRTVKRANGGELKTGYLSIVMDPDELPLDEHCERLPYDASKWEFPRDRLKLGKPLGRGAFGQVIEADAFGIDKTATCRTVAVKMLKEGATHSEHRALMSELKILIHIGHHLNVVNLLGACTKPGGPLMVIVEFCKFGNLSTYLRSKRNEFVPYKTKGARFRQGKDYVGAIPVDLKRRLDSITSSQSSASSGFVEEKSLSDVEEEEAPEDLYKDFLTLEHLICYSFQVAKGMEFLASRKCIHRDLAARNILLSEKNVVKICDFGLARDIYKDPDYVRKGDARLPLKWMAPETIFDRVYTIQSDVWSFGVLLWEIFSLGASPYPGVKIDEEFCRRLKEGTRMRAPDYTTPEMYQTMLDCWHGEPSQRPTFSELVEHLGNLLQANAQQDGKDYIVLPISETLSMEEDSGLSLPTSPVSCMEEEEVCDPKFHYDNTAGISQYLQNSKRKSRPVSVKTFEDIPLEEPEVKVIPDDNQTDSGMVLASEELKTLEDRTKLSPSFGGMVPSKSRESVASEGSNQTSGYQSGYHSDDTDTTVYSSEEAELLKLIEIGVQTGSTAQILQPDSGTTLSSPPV
Description: as §1

PDK1 = PDK1 (Homo sapiens, UniProt O15530); test: Radiometric filter binding kinase assay
Description: as §1

c-Abl = c-Abl (Homo sapiens, UniProt P00519); test: Radiometric filter binding kinase assay
Description: as §1

c-Abl-T315I = c-Abl-T315I (Homo sapiens, UniProt P00519, T315I); test: Radiometric filter binding kinase assay
Description: as §1

c-Src = c-Src (Homo sapiens, UniProt P12931); test: Radiometric filter binding kinase assay; conditions: mean of two independent experiments ± SD
Description: as §1

T1 sequence (P11388 whole entry): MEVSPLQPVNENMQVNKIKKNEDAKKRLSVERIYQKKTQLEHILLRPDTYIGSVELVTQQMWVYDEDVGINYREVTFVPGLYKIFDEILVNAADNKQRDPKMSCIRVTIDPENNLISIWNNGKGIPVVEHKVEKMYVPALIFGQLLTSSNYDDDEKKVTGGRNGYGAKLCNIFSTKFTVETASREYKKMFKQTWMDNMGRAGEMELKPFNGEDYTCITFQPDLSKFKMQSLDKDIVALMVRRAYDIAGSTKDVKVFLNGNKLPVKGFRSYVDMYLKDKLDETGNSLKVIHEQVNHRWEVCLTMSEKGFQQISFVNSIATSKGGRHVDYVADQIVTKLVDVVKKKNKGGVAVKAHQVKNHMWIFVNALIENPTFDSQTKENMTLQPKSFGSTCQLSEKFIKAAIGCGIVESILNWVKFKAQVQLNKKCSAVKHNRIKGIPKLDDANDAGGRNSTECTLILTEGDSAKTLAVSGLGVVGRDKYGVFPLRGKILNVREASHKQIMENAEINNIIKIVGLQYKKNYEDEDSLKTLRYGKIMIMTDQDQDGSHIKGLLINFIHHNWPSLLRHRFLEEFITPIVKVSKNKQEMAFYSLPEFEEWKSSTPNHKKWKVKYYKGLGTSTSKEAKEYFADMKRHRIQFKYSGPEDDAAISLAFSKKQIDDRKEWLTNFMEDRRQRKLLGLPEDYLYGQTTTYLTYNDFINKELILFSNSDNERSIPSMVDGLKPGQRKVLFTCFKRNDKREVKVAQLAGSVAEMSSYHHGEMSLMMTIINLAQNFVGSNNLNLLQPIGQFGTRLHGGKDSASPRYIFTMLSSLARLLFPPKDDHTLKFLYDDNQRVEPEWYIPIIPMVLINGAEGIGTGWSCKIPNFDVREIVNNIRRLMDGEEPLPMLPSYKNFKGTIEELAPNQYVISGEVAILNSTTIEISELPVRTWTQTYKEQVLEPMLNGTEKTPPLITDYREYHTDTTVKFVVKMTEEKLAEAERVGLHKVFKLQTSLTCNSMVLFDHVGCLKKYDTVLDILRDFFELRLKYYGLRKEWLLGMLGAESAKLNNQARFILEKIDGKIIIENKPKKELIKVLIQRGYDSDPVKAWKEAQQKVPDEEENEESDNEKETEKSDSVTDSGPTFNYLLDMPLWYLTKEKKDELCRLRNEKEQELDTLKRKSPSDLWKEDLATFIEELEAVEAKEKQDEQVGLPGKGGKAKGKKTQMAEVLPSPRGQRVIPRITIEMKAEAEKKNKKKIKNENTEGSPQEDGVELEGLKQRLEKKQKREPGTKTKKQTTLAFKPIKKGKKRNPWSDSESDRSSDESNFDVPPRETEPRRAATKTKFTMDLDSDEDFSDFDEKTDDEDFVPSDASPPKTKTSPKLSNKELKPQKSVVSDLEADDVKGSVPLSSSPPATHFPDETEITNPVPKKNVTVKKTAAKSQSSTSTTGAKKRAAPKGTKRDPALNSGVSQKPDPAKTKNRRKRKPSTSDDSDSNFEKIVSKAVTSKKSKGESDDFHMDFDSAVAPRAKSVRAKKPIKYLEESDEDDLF

IC50 [1]: 0.66 µM
IC50 (Axl): > 10 µM
IC50 (CDK1/CycB): > 10 µM
IC50 (EphB4): > 10 µM
IC50 (IGF-1R): > 10 µM
IC50 (Jak2): > 10 µM
IC50 (KDR): > 10 µM
IC50 (PDK1): > 10 µM
IC50 (c-Abl): > 10 µM
IC50 (c-Abl-T315I): > 10 µM
IC50 (c-Src): 1.7 ± 0.5 µM
Compound: CCc1nc2nc(Nc3ccc4nc(OCCN5CCOCC5)ccc4c3)nc(NC(C)(C)C)c2[nH]1 [QAP 1]

From publication PMC2628638, “Catalytic inhibition of topoisomerase II by a novel rationally designed ATP-competitive purine analogue” (BMC Chemical Biology, 2009)
